Experimental findings from patent US5599553A, “Local drug delivery film for periodontal treatment” (Dong Kook Pharmaceutical Co., Ltd., priority 1992, dated 1997) are described below.

Series [1] has as its system Actinobacillus actinomycetemcomitans. Put plainly: Susceptibility test of antibiotics / MIC of minocycline. It is filed as cell-based. As to the method: (§1) At first, the minimal inhibitory concentration (hereinafter it is abbreviated to MIC) of minocycline for bacilli, especially Antinobacillus actinomycetemcomitans as main bacillus and the minimum period to optimum treatment effect with MIC were examined. […] Also, it was reported by Goodson et al. that the concentration more than MIC has to be sustained to inhibit growth of periodontal bacillus for at least 48 hours, especially at least 10 days for optimum treatment effect. Accordingly, local drug delivery should sustain the concentration of minocyclne in the periodontal pocket at least 4 μg/ml for at least 48 hours, and especially more than 10 days to optimize treatment effect. So the present local drug delivery was examined to learn if it coincided with the standard or not.

The subject of series [2] is 139 kinds of tested bacilli. Put plainly: Susceptibility test of antibiotics to bacilli in mouth. It is filed as cell-based. As to the method:
as §1

The test system of series [3] is human gingival fibroblast. Put plainly: Cytotoxic inhibition activity, [3H]-thymidine incorporation.
Method: Human gingival fibroblast was cultivated and divided into 24 multi-well dish as much as 1×10 ^5 cell/well each. Medium was chant ed next day. After 3 days, medium was removed and washed with Hank's balanced salt solution (hereinafter it is abbreviated to HBSS). […] After 2 hours, said solutions were stood at 4° C. for 10 min using ice cold 5% Trichloroacetic acid (TCA) 3 ml. After washing 3 or 4 times with TCA, removed TCA, and dissolved gingival fibroblast by 0.5N-NaOH 1 ml at 37° C. for 30 min. 50 μl of said solution was taken, added 4 ml of cocktail solution to said solution and count per minute was measured by liquid scintillation counter.
The subject of series [4] is human gingival fibroblast. Put plainly: Rapid colorimetric assay for cellular growth survival (MTT).
Method: The floating solution obtained was devided into microtest plate well (obtained from Nuck, Denmark) as much as 2.5×10cell/well using the standard blood corpuscle calculation method so that MEM containing 10% fatal calf serum, peniciline 10 units/ml, streptomycine 100 μg/ml and fungizone 0.2 μl/ml became containing 2500, 5000, 10000, 15000, 20000, and 30000 cell per 200 ml and the resulting solution was incubated. Culture solution was changed next day. After 2 days, culture solution was removed and washed with HBSS. […] This was incubated in incubator at 37° C. […] As control group, MEM culture solution well was used every test. All test results were calculated as percentage unit to control group.

Regarding `CN(C)c1ccc(O)c2c1C[C@H]1C[C@H]3[C@H](N(C)C)C(=O)C(C(N)=O)=C(O)[C@@]3(O)C(=O)C1=C2O` [minocycline], in series [1], the “break point of minocycline concentration to periodontal treatment” value lay within 2 to 4 µg/mL. In series [1] (Aggregatibacter actinomycetemcomitans, read-out: concentration of minocycline at which susceptibility is shown), the MIC fell in the range of 2 to 4 µg/mL. The “tested bacilli that showed susceptibility” value in series [2] is listed as 98%. The “growth of gingival fibroblast” value in series [3] (160 μg/ml to 2560 μg/ml) is “growth of gingival fibroblast was not inhibited”. The “growth inhibition of gingival fibroblast” value in series [3] (observation for 7 days) was “statistical singnificance about growth inhibitory of gingival fibroblast was not observed”. The “difference in cell activity according to minocycline concentration” value in series [4] was “difference in cell activity according to concentration of minocycline was not observed”.
